# From ChEMBL document CHEMBL1138003, “Small molecule inhibitors of the CCR2b receptor. Part 1: Discovery and optimization of homopiperazine derivatives” (Bioorg Med Chem Lett, 2004)
# Assays:
# [1] = target: T1, C-C chemokine receptor type 2 (Homo sapiens, UniProt P41597); assay: Percent inhibition of [125I]MCP-1 (Monocyte Chemoattractant Protein-1) binding to THP-1 cells at 100 uM; assay type: cell-based
# Target sequence in this assay (P41597 whole entry, looked up): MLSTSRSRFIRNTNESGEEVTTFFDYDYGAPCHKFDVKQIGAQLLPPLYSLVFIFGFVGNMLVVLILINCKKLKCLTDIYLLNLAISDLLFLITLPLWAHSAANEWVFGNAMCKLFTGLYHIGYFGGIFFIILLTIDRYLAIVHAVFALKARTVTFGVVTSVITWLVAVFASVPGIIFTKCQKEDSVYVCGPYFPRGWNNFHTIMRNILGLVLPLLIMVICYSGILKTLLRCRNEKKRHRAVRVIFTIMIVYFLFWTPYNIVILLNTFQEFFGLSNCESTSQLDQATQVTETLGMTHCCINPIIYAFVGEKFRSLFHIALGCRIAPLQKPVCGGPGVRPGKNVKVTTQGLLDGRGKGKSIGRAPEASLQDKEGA
# [2] = target: T1, C-C chemokine receptor type 2; assay: Concentration required to inhibit [125I]MCP-1 (Monocyte Chemoattractant Protein-1) binding to THP-1 cell; assay type: cell-based
# Target sequence in this assay (P41597 whole entry): as the sequence (P41597 whole entry, looked up) above
# [3] = target: T1, C-C chemokine receptor type 2; assay: Percent inhibition of […] (Monocyte Chemoattractant Protein-1) binding to THP-1 cells at 100 uM; assay type: cell-based
# Target sequence in this assay (P41597 whole entry, looked up): as above
# [4] = target: T1, C-C chemokine receptor type 2; assay: Concentration required to inhibit [125I]MCP-1 (Monocyte Chemoattractant Protein-1) binding to THP-1 cell; not determined; assay type: cell-based
# Target sequence in this assay (P41597 whole entry): as the sequence (P41597 whole entry, looked up) above
# [5] = Effective concentration in a chemotaxis assay; assay type: functional
Compound,inhibition [1] [%],IC50 [2] [µM],inhibition [3] [%],also measured
CS(=O)(=O)c1ccc(CN2CCCN(CCC(O)(c3ccc(-c4ccccc4)cc3)c3ccc(-c4ccccc4)cc3)CC2)cc1,0,–,–,–
CS(=O)(=O)c1ccc(CN2CCCN(Cc3ccc(Cl)cc3)CC2)cc1,–,> 100,–,–
c1ccc(C(CCN2CCCN(Cc3cccnc3)CC2)c2ccccc2)cc1,–,–,69,–
Cc1csc(C(=O)NNC(=O)CN2CCCN(CCC(O)(c3ccccc3)c3cccc(O)c3)CC2)c1 (stereo not given),–,6.4,–,–
CS(=O)(=O)c1ccc(CN2CCCN(CCC(O)(c3ccc(O)cc3)c3ccc(O)cc3)CC2)cc1,83,21,–,–
O=C(CN1CCCN(Cc2ccc(Cl)cc2)CC1)NNC(=O)c1cccs1,–,30,–,–
CNc1cccc(C(O)(CCN2CCCN(Cc3ccc(S(C)(=O)=O)cc3)CC2)c2ccccc2)c1 (stereo not given),87,5,–,–
CCCN1CCCN(CCC(c2ccccc2)c2ccccc2)CC1,–,–,15,–
CS(=O)(=O)c1ccc(CN2CCCN(CCC(O)(c3cccc(O)c3)c3cccc(Cl)c3)CC2)cc1 (stereo not given),99,4.5,–,–
c1ccc(C(CCN2CCCN(Cc3ccncc3)CC2)c2ccccc2)cc1,–,11,87,–
Clc1ccc(CN2CCCN(CCC(c3ccccc3)c3ccccc3)CC2)cc1,–,–,8,–
COc1ccccc1C(O)(CCN1CCCN(Cc2ccc(S(C)(=O)=O)cc2)CC1)c1ccccc1OC,14,–,–,–
CS(=O)(=O)c1ccc(CN2CCCN(CCC(O)(c3ccccc3)c3cccc(N)c3)CC2)cc1 (stereo not given),102,4.2,–,–
CS(=O)(=O)c1ccc(CN2CCCN(CCC(O)(c3ccc(F)cc3)c3cccc(O)c3)CC2)cc1 (stereo not given),105,1.5,–,–
COc1cccc(C(O)(CCN2CCCN(Cc3ccc(S(C)(=O)=O)cc3)CC2)c2cccc(OC)c2)c1,38,–,–,–
O=C(CN1CCCN(CCC(O)(c2ccccc2)c2cccc(O)c2)CC1)NNC(=O)c1cccs1 (stereo not given),–,28,–,–
FC(F)(F)c1ccc(CN2CCCN(CCC(c3ccccc3)c3ccccc3)CC2)cc1,–,–,25,–
CS(=O)(=O)c1ccc(CN2CCCN(CCC(O)(c3ccc(Cl)cc3)c3ccc(Cl)cc3)CC2)cc1,94,11,–,–
COC(=O)c1ccc(CN2CCCN(CCC(c3ccccc3)c3ccccc3)CC2)cc1,–,–,1,–
COc1ccc(CN2CCCN(CCC(c3ccccc3)c3ccccc3)CC2)cc1,–,–,7,–
CN(C)c1ccc(C(O)(CCN2CCCN(Cc3ccc(S(C)(=O)=O)cc3)CC2)c2ccc(N(C)C)cc2)cc1,68,45,–,–
CS(=O)(=O)c1ccc(CN2CCCN(CCC(c3ccccc3)c3ccccc3)CC2)cc1,–,13,91,–
Cc1cccc(C(O)(CCN2CCCN(Cc3ccc(S(C)(=O)=O)cc3)CC2)c2ccccc2)c1 (stereo not given),92,16,–,–

Compound,inhibition [1] [%],IC50 [2] [µM],inhibition [3] [%],also measured
CS(=O)(=O)c1ccc(CN2CCCN(CCC(O)(c3ccccc3)c3ccccc3)CC2)cc1,104,4.1,–,–
CS(=O)(=O)c1ccc(CN2CCCN(CCC(O)(c3cccc(O)c3)c3cccc(O)c3)CC2)cc1,108,–,–,IC50 [4]: 1.5 µM
Cc1csc(C(=O)NNC(=O)CN2CCCN(Cc3ccc(Cl)cc3)CC2)c1,–,7.4,–,EC50 [5]: 9.5 µM
CS(=O)(=O)c1ccc(CN2CCCN(CCC(O)(c3cccc(F)c3)c3cccc(F)c3)CC2)cc1,75,34,–,–
Cc1ccccc1C(O)(CCN1CCCN(Cc2ccc(S(C)(=O)=O)cc2)CC1)c1ccccc1C,0,–,–,–
CS(=O)(=O)c1ccc(CN2CCCN(CCC(O)(c3ccccc3)c3cccc(O)c3)CC2)cc1 (stereo not given),105,0.71,–,–
O=[N+]([O-])c1ccc(CN2CCCN(CCC(c3ccccc3)c3ccccc3)CC2)cc1,–,19,87,–
N#Cc1ccc(CN2CCCN(CCC(c3ccccc3)c3ccccc3)CC2)cc1,–,43,74,–
COc1cccc(C(O)(CCN2CCCN(Cc3ccc(S(C)(=O)=O)cc3)CC2)c2ccccc2)c1 (stereo not given),97,7.9,–,–
CS(=O)(=O)c1ccc(CN2CCCN(CCC(O)(c3ccccc3)c3cccc(CO)c3)CC2)cc1 (stereo not given),100,4,–,–
CS(=O)(=O)c1ccc(CN2CCCN(CCC(O)(c3ccc(C(F)(F)F)cc3)c3ccc(C(F)(F)F)cc3)CC2)cc1,38,–,–,–
c1ccc(CN2CCCN(CCC(c3ccccc3)c3ccccc3)CC2)cc1,–,–,24,–
CS(=O)(=O)c1ccc(CN2CCCN(CCC(O)(c3ccccc3)c3cccc(F)c3)CC2)cc1 (stereo not given),95,12,–,–
CC(C)(C)c1ccc(C(O)(CCN2CCCN(Cc3ccc(S(C)(=O)=O)cc3)CC2)c2ccc(C(C)(C)C)cc2)cc1,39,–,–,–
CS(=O)(=O)c1ccc(CN2CCCN(CCC(O)(c3ccc(Cl)cc3)c3cccc(O)c3)CC2)cc1 (stereo not given),104,1.5,–,–
CS(=O)(=O)c1ccc(CN2CCCN(CCC(O)(c3cccc(O)c3)c3cc(F)cc(F)c3)CC2)cc1 (stereo not given),107,9.3,–,–
c1ccc(C(CCN2CCCN(Cc3ccccn3)CC2)c2ccccc2)cc1,–,–,35,–
NS(=O)(=O)c1ccc(CN2CCCN(CCC(O)(c3ccccc3)c3cccc(O)c3)CC2)cc1 (stereo not given),–,1.5,–,–
CS(=O)(=O)c1ccc(CN2CCCN(CCC(O)(c3cccc(O)c3)c3cccc(F)c3)CC2)cc1 (stereo not given),104,2.4,–,–
O=[N+]([O-])c1cccc(CN2CCCN(CCC(c3ccccc3)c3ccccc3)CC2)c1,–,–,35,–
CS(=O)(=O)c1ccc(CN2CCCN(CCC(O)(c3ccc(F)cc3)c3ccc(F)cc3)CC2)cc1,100,7,–,–
CS(=O)(=O)c1ccc(CN2CCCN(CCC(O)(c3cccc(Cl)c3)c3cccc(Cl)c3)CC2)cc1,28,–,–,–
O=[N+]([O-])c1ccccc1CN1CCCN(CCC(c2ccccc2)c2ccccc2)CC1,–,–,7,–
